Measured values taken from ChEMBL document CHEMBL1201861, “Genomics of Drug Sensitity in Cancer screening data, Wellcome Trust Sanger Institute”.

Assays:
Experiment in all cases: cells
PC-3 = format: functional, cell-based, Homo sapiens; conditions: Homo sapiens, PC-3;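 further: cell viability assay measuring growth inhibition of PC-3 cells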
Description: SANGER: Inhibition of human PC-3 cell growth in a cell viability assay.

M059J = format: functional, cell-based, Homo sapiens; conditions: Homo sapiens, M059J;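 further: growth inhibition of M059J cells, read out with a cell viability assay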
Description: SANGER: Inhibition of human M059J cell growth in a cell viability assay.

HCE-T = format: functional, cell-based, Homo sapiens; conditions: Homo sapiens, HCE-T;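 further: cell viability assay read-out, reporting inhibition of HCE-T cell growth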
Description: SANGER: Inhibition of human HCE-T cell growth in a cell viability assay.

COLO-678 = format: functional, cell-based, Homo sapiens; conditions: Homo sapiens, COLO-678
Description: SANGER: Inhibition of human COLO-678 cell growth in a cell viability assay.

CAL-39 = format: functional, cell-based, Homo sapiens; conditions: Homo sapiens, CAL-39;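 further: cell viability assay measuring growth inhibition of CAL-39 cells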
Description: SANGER: Inhibition of human CAL-39 cell growth in a cell viability assay.

LNCaP-Clone-FGC = format: functional, cell-based, Homo sapiens; conditions: Homo sapiens, LNCaP-Clone-FGC
Description: SANGER: Inhibition of human LNCaP-Clone-FGC cell growth in a cell viability assay.

Panc1005 = format: functional, cell-based, Homo sapiens; conditions: Homo sapiens, Panc1005;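 further: growth inhibition of human PANC-10-05 cells, measured by a cell viability assay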
Description: SANGER: Inhibition of human PANC-10-05 cell growth in a cell viability assay.

Capan-2 = format: functional, cell-based, Homo sapiens; conditions: Homo sapiens, Capan-2;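 further: Capan-2 cell growth inhibition, read out with a viability assay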
Description: SANGER: Inhibition of human Capan-2 cell growth in a cell viability assay.

SW837 = format: functional, cell-based, Homo sapiens; conditions: Homo sapiens, SW837;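 further: growth inhibition of SW837 cells, determined with a cell viability assay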
Description: SANGER: Inhibition of human SW837 cell growth in a cell viability assay.

UACC-62 = format: functional, cell-based, Homo sapiens; conditions: Homo sapiens, UACC-62;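 further: growth inhibition of human UACC-62 cells, read out by a cell viability assay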
Description: SANGER: Inhibition of human UACC-62 cell growth in a cell viability assay.

C2BBe1 = format: functional, cell-based, Homo sapiens; conditions: Homo sapiens, C2BBe1;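 further: growth inhibition of C2BBe1 cells, read out through a viability assay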
Description: SANGER: Inhibition of human C2BBe1 cell growth in a cell viability assay.

MDA-MB-157 = format: functional, cell-based, Homo sapiens; conditions: Homo sapiens, MDA-MB-157
Description: SANGER: Inhibition of human MDA-MB-157 cell growth in a cell viability assay.

KURAMOCHI = format: functional, cell-based; conditions: Homo sapiens;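 further: growth inhibition of KURAMOCHI cells, read out with a cell viability assay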
Description: SANGER: Inhibition of human KURAMOCHI cell growth in a cell viability assay.

MIA PaCa-2 = format: functional, cell-based, Homo sapiens; conditions: Homo sapiens, MIA PaCa-2;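 further: growth inhibition of MIA PaCa-2 cells, read out with a cell viability assay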
Description: SANGER: Inhibition of human MIA-PaCa-2 cell growth in a cell viability assay.

OCUB-M = format: functional, cell-based, Homo sapiens; conditions: Homo sapiens, OCUB-M;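 further: growth inhibition of the cancer cell line, read out through a cell viability assay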
Description: SANGER: Inhibition of human OCUB-M cell growth in a cell viability assay.

DU-4475 = format: functional, cell-based; conditions: Homo sapiens
Description: SANGER: Inhibition of human DU-4475 cell growth in a cell viability assay.

LN-405 = format: functional, cell-based, Homo sapiens; conditions: Homo sapiens, LN-405
Description: SANGER: Inhibition of human LN-405 cell growth in a cell viability assay.

LB2241-RCC = format: functional, cell-based, Homo sapiens; conditions: Homo sapiens, LB2241-RCC;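 further: cell viability assay measuring how strongly the cultured human renal carcinoma line is prevented from growing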
Description: SANGER: Inhibition of human LB2241-RCC cell growth in a cell viability assay.

OVCAR-3 = format: functional, cell-based, Homo sapiens; conditions: Homo sapiens, OVCAR-3;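 further: growth inhibition of human OVCAR-3 cells, determined by a cell viability assay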
Description: SANGER: Inhibition of human OVCAR-3 cell growth in a cell viability assay.

NCI-H1793 = format: functional, cell-based, Homo sapiens; conditions: Homo sapiens, NCI-H1793;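 further: cell growth inhibition, read out by a cell viability assay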
Description: SANGER: Inhibition of human NCI-H1793 cell growth in a cell viability assay.

ES6 = format: functional, cell-based, Homo sapiens; conditions: Homo sapiens, ES6;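 further: growth inhibition of human ES6 cells, read out with a cell viability assay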
Description: SANGER: Inhibition of human ES6 cell growth in a cell viability assay.

COLO-829 = format: functional, cell-based, Homo sapiens; conditions: Homo sapiens, COLO-829
Description: SANGER: Inhibition of human COLO-829 cell growth in a cell viability assay.

KYSE-520 cell line = format: functional, cell-based, Homo sapiens; conditions: Homo sapiens, KYSE-520;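 further: growth inhibition of human KYSE-520 cells, read out with a viability assay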
Description: SANGER: Inhibition of human KYSE-520 cell growth in a cell viability assay.

HCC1419 = format: functional, cell-based, Homo sapiens; conditions: Homo sapiens, HCC1419;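 further: growth inhibition of human HCC1419 cells, read out as cell viability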
Description: SANGER: Inhibition of human HCC1419 cell growth in a cell viability assay.

COLO-800 = format: functional, cell-based, Homo sapiens; conditions: Homo sapiens, COLO-800;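 further: growth inhibition of COLO-800 cells, read out with a cell viability assay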
Description: SANGER: Inhibition of human COLO-800 cell growth in a cell viability assay.

DJM-1 = format: functional, cell-based, Homo sapiens; conditions: Homo sapiens, DJM-1;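 further: growth inhibition of human DJM-1 cells, read out by a cell viability assay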
Description: SANGER: Inhibition of human DJM-1 cell growth in a cell viability assay.

OS-RC-2 = format: functional, cell-based, Homo sapiens; conditions: Homo sapiens, OS-RC-2;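 further: growth inhibition of human OS-RC-2 cells, measured by a cell viability assay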
Description: SANGER: Inhibition of human OS-RC-2 cell growth in a cell viability assay.

BB65-RCC = format: functional, cell-based, Homo sapiens; conditions: Homo sapiens, BB65-RCC;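 further: growth inhibition of the cell line, measured with a cell viability assay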
Description: SANGER: Inhibition of human BB65-RCC cell growth in a cell viability assay.

GAMG = format: functional, cell-based, Homo sapiens; conditions: Homo sapiens, GAMG;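 further: cell growth inhibition measured by a viability assay in the GAMG human cell line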
Description: SANGER: Inhibition of human GAMG cell growth in a cell viability assay.

MeWo = format: functional, cell-based, Homo sapiens; conditions: Homo sapiens, MeWo;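 further: growth inhibition of MeWo cells, determined by a cell viability readout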
Description: SANGER: Inhibition of human Mewo cell growth in a cell viability assay.

NCI-H226 = format: functional, cell-based, Homo sapiens; conditions: Homo sapiens, NCI-H226;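 further: cell viability read-out used to gauge growth inhibition of the cells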
Description: SANGER: Inhibition of human NCI-H226 cell growth in a cell viability assay.

NCI-H2452 = format: functional, cell-based, Homo sapiens; conditions: Homo sapiens, NCI-H2452;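 further: growth inhibition of NCI-H2452 cells, read out with a cell viability assay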
Description: SANGER: Inhibition of human NCI-H2452 cell growth in a cell viability assay.

RD = format: functional, cell-based, Homo sapiens; conditions: Homo sapiens, RD
Description: SANGER: Inhibition of human RD cell growth in a cell viability assay.

NCI-H510A = format: functional, cell-based; conditions: Homo sapiens;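 further: growth inhibition of NCI-H510A cells, read out with a cell viability assay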
Description: SANGER: Inhibition of human NCI-H510A cell growth in a cell viability assay.

Ca9-22 = format: functional, cell-based, Homo sapiens; conditions: Homo sapiens, Ca9-22;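 further: growth inhibition of Ca9-22 cells, read out with a cell viability assay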
Description: SANGER: Inhibition of human Ca9-22 cell growth in a cell viability assay.

RO82-W-1 = format: functional, cell-based, Homo sapiens; conditions: Homo sapiens, RO82-W-1;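 further: growth inhibition of human RO82-W-1 cells, measured with a cell viability assay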
Description: SANGER: Inhibition of human RO82-W-1 cell growth in a cell viability assay.

EFM-19 = format: functional, cell-based, Homo sapiens; conditions: Homo sapiens, EFM-19;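 further: growth inhibition of human EFM-19 cells, measured in a cell viability assay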
Description: SANGER: Inhibition of human EFM-19 cell growth in a cell viability assay.

TE-1 = format: functional, cell-based, Homo sapiens; conditions: Homo sapiens, TE-1;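 further: growth inhibition of the human TE-1 cell line, read out with a cell viability assay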
Description: SANGER: Inhibition of human TE-1 cell growth in a cell viability assay.

PANC-08-13 = format: functional, cell-based, Homo sapiens; conditions: Homo sapiens, PANC-08-13;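 further: cell growth inhibition, measured with a cell viability assay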
Description: SANGER: Inhibition of human PANC-08-13 cell growth in a cell viability assay.

SF-295 = format: functional, cell-based, Homo sapiens; conditions: Homo sapiens, SF-295; read-out: IC50;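 further: growth inhibition of SF-295 cells, read out with a cell viability assay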
Description: SANGER: Inhibition of human SF295 cell growth in a cell viability assay.

C32 = format: functional, cell-based, Homo sapiens; conditions: Homo sapiens, C32;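 further: cell viability assay, with IC50 reflecting inhibition of C32 cell growth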
Description: SANGER: Inhibition of human C32 cell growth in a cell viability assay.

NCI-H1437 = format: functional, cell-based, Homo sapiens; conditions: Homo sapiens, NCI-H1437;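 further: growth inhibition of human NCI-H1437 cells, read out by a cell viability assay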
Description: SANGER: Inhibition of human NCI-H1437 cell growth in a cell viability assay.

SNB-75 = format: functional, cell-based, Homo sapiens; conditions: Homo sapiens, SNB-75;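 further: cell viability assay measuring growth inhibition of human SNB-75 cells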
Description: SANGER: Inhibition of human SNB75 cell growth in a cell viability assay.

TE-8 = format: functional, cell-based, Homo sapiens; conditions: Homo sapiens, TE-8;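 further: growth inhibition of TE-8 cells, measured with a cell viability readout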
Description: SANGER: Inhibition of human TE-8 cell growth in a cell viability assay.

SK-N-DZ = format: functional, cell-based, Homo sapiens; conditions: Homo sapiens, SK-N-DZ;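 further: growth inhibition of the cancer cell line, read out through a viability assay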
Description: SANGER: Inhibition of human SK-N-DZ cell growth in a cell viability assay.

SJSA-1 = format: functional, cell-based, Homo sapiens; conditions: Homo sapiens, SJSA-1;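 further: growth inhibition of human SJSA-1 cells, read out through a cell viability measurement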
Description: SANGER: Inhibition of human SJSA-1 cell growth in a cell viability assay.

OE33 = format: functional, cell-based, Homo sapiens; conditions: Homo sapiens, OE33;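 further: growth inhibition of human OE33 cells, measured by a cell viability assay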
Description: SANGER: Inhibition of human OE33 cell growth in a cell viability assay.

LS-123 = format: functional, cell-based, Homo sapiens; conditions: Homo sapiens, LS-123
Description: SANGER: Inhibition of human LS-123 cell growth in a cell viability assay.

U2OS = format: functional, cell-based, Homo sapiens, U-2-OS; conditions: Homo sapiens, U2OS;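 further: growth inhibition of human U-2-OS cells, determined with a cell viability assay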
Description: SANGER: Inhibition of human U-2-OS cell growth in a cell viability assay.

In the case of CCC1=C[C@@H]2CN(C1)Cc1c([nH]c3ccccc13)[C@@](C(=O)OC)(c1cc3c(cc1OC)N(C)[C@H]1[C@@](O)(C(=O)OC)[C@H](OC(C)=O)[C@]4(CC)C=CCN5CC[C@]31[C@@H]54)C2 [VINORELBINE], the IC50 (PC-3) is reported as greater than 64 nM, the IC50 (M059J) is reported as 14.1 nM and the IC50 (HCE-T) is reported as greater than 64 nM. It also gave an IC50 (COLO-678) greater than 64 nM, an IC50 (CAL-39) of 4.26 nM and an IC50 (LNCaP-Clone-FGC) of 17.9 nM. It also gave an IC50 (Panc1005) of 3.52 nM, an IC50 (Capan-2) of 30.4 nM and an IC50 (SW837) greater than 64 nM. It also gave an IC50 (UACC-62) of 33.4 nM, an IC50 (C2BBe1) greater than 64 nM and an IC50 (MDA-MB-157) greater than 64 nM. For the same compound, the IC50 (KURAMOCHI) was 2.81 nM, the IC50 (MIA PaCa-2) was 5.83 nM and the IC50 (OCUB-M) was 4.43 nM. For the same compound, the IC50 (DU-4475) was 48.1 nM, the IC50 (LN-405) was greater than 64 nM and the IC50 (LB2241-RCC) was greater than 64 nM. It also gave an IC50 (OVCAR-3) of 6.21 nM, an IC50 (NCI-H1793) of 19.2 nM and an IC50 (ES6) of 42.4 nM. The IC50 (COLO-829) was 0.105 nM, the IC50 (KYSE-520 cell line) was 17.8 nM and the IC50 (HCC1419) was greater than 64 nM. It also gave an IC50 (COLO-800) of 17 nM, an IC50 (DJM-1) of 15.9 nM and an IC50 (OS-RC-2) of 34.3 nM. The IC50 (BB65-RCC) was 61.8 nM, the IC50 (GAMG) was 13 nM and the IC50 (MeWo) was 15.2 nM. The IC50 (NCI-H226) was 25 nM, the IC50 (NCI-H2452) was greater than 64 nM and the IC50 (RD) was 5.42 nM. The IC50 (NCI-H510A) was 15.5 nM, the IC50 (Ca9-22) was 10.3 nM and the IC50 (RO82-W-1) was greater than 64 nM. The IC50 (EFM-19) was 6.04 nM, the IC50 (TE-1) was 13.1 nM and the IC50 (PANC-08-13) was 46.9 nM. The IC50 (SF-295) was 12 nM, the IC50 (C32) was greater than 64 nM and the IC50 (NCI-H1437) was 7.11 nM. It also gave an IC50 (SNB-75) of 12.5 nM, an IC50 (TE-8) of 46 nM and an IC50 (SK-N-DZ) greater than 64 nM. It also gave an IC50 (SJSA-1) of 12.6 nM, an IC50 (OE33) of 20.4 nM and an IC50 (LS-123) greater than 64 nM. It also gave an IC50 (U2OS) greater than 64 nM.
